Test results from the NIST ThermoML archive (doi:10.1007/s10765-013-1469-0).
± gives the expanded uncertainty stated by the source.

Assay: refractive index (Na D-line) (dimensionless); xn = mol fraction of the nth substance listed
Conditions: 101 kPa, Liquid, Standard Abbe refractometry

COCCOCCOCCOCCOC [2,5,8,11,14-pentaoxapentadecane] + CCCCO
refractive index
Conditions | 288.15 K | 293.15 K | 298.15 K | 303.15 K | 308.15 K | 313.15 K | 318.15 K | 323.15 K | 328.15 K | 333.15 K
x2 = 0 | 1.4345 ± 0.00033 | 1.43238 ± 0.00033 | 1.43027 ± 0.00033 | 1.42815 ± 0.00033 | 1.42603 ± 0.00033 | 1.42394 ± 0.00033 | 1.42183 ± 0.00033 | 1.41973 ± 0.00033 | 1.41765 ± 0.00033 | 1.41553 ± 0.00033
x2 = 0.1013 | 1.43292 ± 0.00033 | 1.43079 ± 0.00033 | 1.42868 ± 0.00033 | 1.42658 ± 0.00033 | 1.42448 ± 0.00033 | 1.42237 ± 0.00033 | 1.42027 ± 0.00033 | 1.41818 ± 0.00033 | 1.41611 ± 0.00033 | 1.41403 ± 0.00033
x2 = 0.2236 | 1.43083 ± 0.00033 | 1.42871 ± 0.00033 | 1.42659 ± 0.00033 | 1.42448 ± 0.00033 | 1.42237 ± 0.00033 | 1.42024 ± 0.00033 | 1.41815 ± 0.00033 | 1.41604 ± 0.00033 | 1.41396 ± 0.00033 | 1.41186 ± 0.00033
x2 = 0.3036 | 1.42941 ± 0.00033 | 1.4273 ± 0.00033 | 1.42517 ± 0.00033 | 1.42306 ± 0.00033 | 1.42094 ± 0.00033 | 1.41881 ± 0.00033 | 1.41673 ± 0.00033 | 1.41461 ± 0.00033 | 1.41251 ± 0.00033 | 1.4104 ± 0.00033
x2 = 0.4131 | 1.42694 ± 0.00033 | 1.42482 ± 0.00033 | 1.42271 ± 0.00033 | 1.42058 ± 0.00033 | 1.41846 ± 0.00033 | 1.41635 ± 0.00033 | 1.41424 ± 0.00033 | 1.4121 ± 0.00033 | 1.40998 ± 0.00033 | 1.40784 ± 0.00033
x2 = 0.5065 | 1.42465 ± 0.00033 | 1.42256 ± 0.00033 | 1.42044 ± 0.00033 | 1.4183 ± 0.00033 | 1.41616 ± 0.00033 | 1.41403 ± 0.00033 | 1.41192 ± 0.00033 | 1.40977 ± 0.00033 | 1.40763 ± 0.00033 | 1.40547 ± 0.00033
x2 = 0.5996 | 1.42188 ± 0.00033 | 1.41981 ± 0.00033 | 1.41772 ± 0.00033 | 1.41558 ± 0.00033 | 1.41346 ± 0.00033 | 1.41132 ± 0.00033 | 1.40924 ± 0.00033 | 1.40709 ± 0.00033 | 1.40491 ± 0.00033 | 1.40273 ± 0.00033
x2 = 0.7007 | 1.41822 ± 0.00033 | 1.41614 ± 0.00033 | 1.41408 ± 0.00033 | 1.41199 ± 0.00033 | 1.40985 ± 0.00033 | 1.40775 ± 0.00033 | 1.40562 ± 0.00033 | 1.40351 ± 0.00033 | 1.40133 ± 0.00033 | 1.39917 ± 0.00033
x2 = 0.7991 | 1.41381 ± 0.00033 | 1.41175 ± 0.00033 | 1.40972 ± 0.00033 | 1.40769 ± 0.00033 | 1.40559 ± 0.00033 | 1.40349 ± 0.00033 | 1.40133 ± 0.00033 | 1.39924 ± 0.00033 | 1.39712 ± 0.00033 | 1.39497 ± 0.00033
x2 = 0.8996 | 1.40823 ± 0.00033 | 1.40619 ± 0.00033 | 1.40418 ± 0.00033 | 1.40216 ± 0.00033 | 1.40005 ± 0.00033 | 1.39795 ± 0.00033 | 1.39583 ± 0.00033 | 1.39374 ± 0.00033 | 1.3916 ± 0.00033 | 1.38936 ± 0.00033
